Experimental data from US6765004B1, “Indoloazepines as vasopressin receptor antagonists” (priority 1999, dated 2004).

Legend:
[1] = system: vasopressin-induced hypertension; experiment: Reversal of vasopressin-induced hypertension in rats, intraduodenal single dose; type: in vivo, Male Long Evans rats; details: ID dose 10 mg/kg, anesthetized rats, maximum percent reversal within 60 min
Procedure: Reversal of Vasopressin-Induced Hypertension in Rats
The anti-hypertensive activity of compounds was screened in an anesthetized model of vasopressin-induced hypertension. Male Long Evans, normotensive rats of between 350 and 450 g in body weight were anesthetized with pentobarbital (35 mg/kg, ip) and maintained throughout the procedure with an ip infusion of 10 mg/kg/hr. Arginine vasopressin was infused at 30 ng/kg/min, iv, to induce a stable hypertensive state (ca. 50 mmHg increase in mean arterial blood pressure). Compounds of interest were administered in an ascending dose fashion and the maximum decrease in mean arterial blood pressure was recorded. An ED50 was determined from the linear portion of the dose-response relationship for each animal.
This model was modified slightly to assess the bioavailability of compounds of interest. Rather than dosing the animals iv in an ascending dose fashion, a single dose per animal was administered directly into the duodenum. The anti-hypertensive effects were then monitored for 60 min and the maximum percent reversal was calculated.

human V-2 receptor = molecular target: T1, human V-2 receptor (Homo sapiens, UniProt P30518); experiment: In vitro recombinant vasopressin receptor binding assay (V-2), displacement of 3H-arginine vasopressin; set-up: dose or concentration left out as unconfirmed; details: cloned human V-2 receptor membranes, HEK-293
T1 construct: expressed in transfected cells; host or cells: HEK-293
Procedure: (§1) In Vitro Recombinant Vasopressin Receptor Binding Assay
(§2) Compounds were assessed for their ability to displace ^3H-arginine vasopressin from the human V-1 or V-2 receptor in HEK-293 cells. […] Into wells of 96-well round bottom polypropylene plates were added buffer, test compound, membrane (containing cloned human V-1 or V-2 receptor), and ^3H-vasopressin. The reaction plates were allowed to sit at rt for 1 h. The samples were filtered through Unifilter GF/C plates presoaked in 0.3 polyethyleneimine). The plates were washed 5 times with cold physiological saline containing 0.05% Tween 20. After drying, the bottom of the filter plates were sealed and 0.025 ml of Microscint-20 was added to each filter. The top of the plate was sealed, and the plate was counted.

human V-1 receptor = molecular target: T2, human V-1 receptor (Homo sapiens, UniProt P37288); experiment: In vitro recombinant vasopressin receptor binding assay (V-1), displacement of 3H-arginine vasopressin; set-up: unit of the concentration uncertain; details: at 0.1 (unit uncertain) as printed in cell; cloned human V-1 receptor membranes, HEK-293
T2 construct: expressed in transfected cells; host or cells: HEK-293
Procedure: as §1, §2

T2 sequence (P37288 whole entry): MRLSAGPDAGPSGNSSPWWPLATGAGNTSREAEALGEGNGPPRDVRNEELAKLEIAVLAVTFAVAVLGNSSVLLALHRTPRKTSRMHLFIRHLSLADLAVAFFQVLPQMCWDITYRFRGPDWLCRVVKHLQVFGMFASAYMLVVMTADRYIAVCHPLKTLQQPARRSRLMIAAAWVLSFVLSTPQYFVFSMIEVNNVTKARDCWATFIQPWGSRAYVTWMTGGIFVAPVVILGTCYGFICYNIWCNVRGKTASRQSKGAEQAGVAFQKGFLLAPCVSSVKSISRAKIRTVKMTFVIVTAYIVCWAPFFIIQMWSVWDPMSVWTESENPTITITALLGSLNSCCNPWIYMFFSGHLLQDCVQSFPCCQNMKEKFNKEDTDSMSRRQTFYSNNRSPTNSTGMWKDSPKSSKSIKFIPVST
T1 sequence (P30518 whole entry): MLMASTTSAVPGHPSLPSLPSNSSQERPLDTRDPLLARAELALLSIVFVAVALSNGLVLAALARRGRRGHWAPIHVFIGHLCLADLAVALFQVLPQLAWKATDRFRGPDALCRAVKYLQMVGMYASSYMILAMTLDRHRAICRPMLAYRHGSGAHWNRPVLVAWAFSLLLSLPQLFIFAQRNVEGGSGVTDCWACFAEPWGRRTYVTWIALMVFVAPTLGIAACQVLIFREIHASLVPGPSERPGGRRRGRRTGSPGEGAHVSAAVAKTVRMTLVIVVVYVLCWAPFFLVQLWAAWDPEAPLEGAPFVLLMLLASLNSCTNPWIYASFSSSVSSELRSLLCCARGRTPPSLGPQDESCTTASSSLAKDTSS

Compound	BP Reduction (%) [1]	V2 Bdg (%) (human V-2 receptor)	V1 Bdg (%) (human V-1 receptor)
O=C(Nc1ccc(C(=O)N2CCCc3c[nH]c4cccc2c34)cc1)c1ccccc1-c1ccccc1 [Compound 10, 6-[4-[[(2-Biphenyl-)carbonyl]amino]benzoyl]-3,4,5,6-tetrahydro-1H-azepino[4,3,2-cd]indole]	17%	–	–
Cc1occc1C(=O)Nc1ccc(C(=O)N2CCCc3c[nH]c4cccc2c34)cc1 [Compound 12, 6-[4-[[(2-Methyl-3-furanyl)carbonyl]amino]benzoyl]-3,4,5,6-tetrahydro-1H-azepino[4,3,2-cd]indole]	–	24% (1.0 M)	–
O=C(Nc1ccc(C(=O)N2CCCC3C(=O)Nc4cccc2c43)cc1)c1ccccc1-c1ccccc1 (centres unmarked) [Compound 15, 6-[4-[[(2-Biphenyl-)carbonyl]amino]benzoyl]-3,4,5,6-tetrahydro-1H-azepino[4,3,2-cd]-2-indolone]	23%	–	–
CN(C)Cc1[nH]c2cccc3c2c1CCCN3C(=O)c1ccc(NC(=O)c2ccccc2-c2ccccc2)cc1 [Compound 17, 6-[4-[[(2-Biphenyl-)carbonyl]amino]benzoyl]-2-(N, N-dimethylaminomethyl)-3,4,5,6-tetrahydro-1 H-azepino[4,3,2-cd]indole]	–	–	6% (0.1 M)
O=C(Nc1ccc(C(=O)N2CCCc3c(S(=O)(=O)O)[nH]c4cccc2c34)cc1)c1ccccc1-c1ccccc1 [Compound 18, 6-[4-[[(2-Biphenyl-)carbonyl]amino]benzoyl]-3,4,5,6-tetrahydro-1H-azepino[4,3,2-cd]indole-2-sulfonic acid]	13%	–	0% (0.1 M)
O=C(Nc1ccc(C(=O)N2CCCc3c(S(=O)(=O)O)[nH]c4cccc2c34)c(Cl)c1)c1ccccc1-c1ccccc1 [Compound 19, 6-[4-[[(2-Biphenyl-)carbonyl]amino]2-chlorobenzoyl]-3,4,5,6-tetrahydro-1 H-azepino (4,3,2-cd]indole-2-sulfonic acid]	23%	–	4% (0.1 M)
